#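 These data come from cells grown in 96-well plates and exposed to compound for 48 hours at five concentrations. GI50 = concentration required for 50% inhibition of growth.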 Active and inactive are the calls of the source. Rule as the data show it: active = GI50 up to about 1.1 µM and inactive = higher.
# What was measured:
# Assay in all cases: NCI tumour cell line growth inhibition, 48 h
# [1] = test system: A549
# [2] = test system: ACHN
# [3] = test system: HCC 2998
# [4] = test system: HCT-116
# [5] = test system: HL-60
# [6] = test system: HT-29
# [7] = test system: KM12
# [8] = test system: LOX IMVI
# [9] = test system: MDA-MB-435
# [10] = test system: Malme-3M
# [11] = test system: NCI/ADR-RES
# [12] = test system: OVCAR-3
# [13] = test system: OVCAR-4
# [14] = test system: RPMI-8226
# [15] = test system: SF-295
# [16] = test system: SF-539
# [17] = test system: SK-MEL-28
# [18] = test system: SK-MEL-2
# [19] = test system: SK-MEL-5
# [20] = test system: SN12C
Compound,GI50 [1],GI50 [2],GI50 [3],GI50 [4],GI50 [5],GI50 [6],GI50 [7],GI50 [8],GI50 [9],GI50 [10],GI50 [11],GI50 [12],GI50 [13],GI50 [14],GI50 [15],GI50 [16],GI50 [17],GI50 [18],GI50 [19],GI50 [20]
CCC(C)C(=O)O[C@H]1C(=O)O[C@@H]2C[C@H]3C(C)=CC(=O)[C@@H](O)[C@]3(C)[C@H]3[C@@H](O)[C@H](O)[C@@]4(C)OC[C@]32[C@@H]14 (stereo not given in full),0.141 µM (active),< 0.0156 µM (active),< 0.0147 µM (active),< 0.01 µM (active),0.014 µM (active),< 0.0146 µM (active),< 0.0161 µM (active),< 0.0129 µM (active),< 0.01 µM (active),< 0.0152 µM (active),< 0.0334 µM (active),0.0169 µM (active),< 0.01 µM (active),< 0.016 µM (active),< 0.0205 µM (active),< 0.0176 µM (active),< 0.01 µM (active),< 0.0252 µM (active),< 0.0169 µM (active),< 0.01 µM (active)
COC1(CC[C@H](C)COC2OC(CO)C(O)C(O)C2O)O[C@H]2C[C@H]3[C@@H]4CC=C5C[C@@H](OC6OC(CO)C(O)C(OC7OC(CO)C(O)C(O)C7O)C6OC6OC(C)C(O)C(O)C6O)CC[C@]5(C)[C@H]4CC[C@]3(C)[C@H]2[C@@H]1C (stereo not given in full),2.73 µM (inactive),13.3 µM (inactive),4.86 µM (inactive),4.5 µM (inactive),3.12 µM (inactive),4.57 µM (inactive),1.98 µM (inactive),2.68 µM (inactive),1.87 µM (inactive),2.5 µM (inactive),9.44 µM (inactive),16.7 µM (inactive),5.28 µM (inactive),2.54 µM (inactive),3.3 µM (inactive),2.17 µM (inactive),2.31 µM (inactive),8.77 µM (inactive),5.27 µM (inactive),5.41 µM (inactive)
O=C1c2c(ccc3c2CCC3)CC1Cc1ccc2c(c1)CCC2 (stereo not given),28.9 µM (inactive),36.1 µM (inactive),34.3 µM (inactive),6.55 µM (inactive),4.69 µM (inactive),17.6 µM (inactive),25.2 µM (inactive),25.4 µM (inactive),24 µM (inactive),28.8 µM (inactive),28.2 µM (inactive),24.4 µM (inactive),27.5 µM (inactive),9.91 µM (inactive),26.9 µM (inactive),91 µM (inactive),51.8 µM (inactive),27.2 µM (inactive),12.5 µM (inactive),23.4 µM (inactive)
Fc1ccc(OCc2ccc3nc(-c4ccccc4)c(Cl)nc3c2)cc1,38.6 µM (inactive),25.4 µM (inactive),40.5 µM (inactive),31.6 µM (inactive),33.3 µM (inactive),65.2 µM (inactive),51.6 µM (inactive),88.5 µM (inactive),91.4 µM (inactive),9.44 µM (inactive),34.1 µM (inactive),47.6 µM (inactive),39.5 µM (inactive),96.2 µM (inactive),21.4 µM (inactive),16 µM (inactive),69.3 µM (inactive),41.9 µM (inactive),17 µM (inactive),56.6 µM (inactive)
C=C1CCCCCCCCC/C=C/1SCCCSC,> 100 µM (inactive),> 100 µM (inactive),> 100 µM (inactive),> 100 µM (inactive),> 100 µM (inactive),> 100 µM (inactive),> 100 µM (inactive),> 100 µM (inactive),> 100 µM (inactive),> 100 µM (inactive),> 100 µM (inactive),> 100 µM (inactive),> 100 µM (inactive),> 100 µM (inactive),> 100 µM (inactive),> 100 µM (inactive),> 100 µM (inactive),> 100 µM (inactive),> 100 µM (inactive),> 100 µM (inactive)
CC(=O)N1NC(c2ccccc2)=NC(=O)C1c1cc(C)c(O)c(C)c1 (stereo not given),24.4 µM (inactive),20.7 µM (inactive),20 µM (inactive),21.2 µM (inactive),> 100 µM (inactive),72.4 µM (inactive),36 µM (inactive),36.3 µM (inactive),64.4 µM (inactive),17.7 µM (inactive),21.9 µM (inactive),19.2 µM (inactive),19.8 µM (inactive),52.7 µM (inactive),19.1 µM (inactive),20.4 µM (inactive),54.6 µM (inactive),28.1 µM (inactive),20.3 µM (inactive),27.5 µM (inactive)
CC(NNC(=O)c1ccncc1)c1ccc(Cl)cc1Cl (stereo not given),> 100 µM (inactive),> 100 µM (inactive),> 100 µM (inactive),> 100 µM (inactive),46.5 µM (inactive),> 100 µM (inactive),49.3 µM (inactive),86.5 µM (inactive),> 100 µM (inactive),> 100 µM (inactive),93.8 µM (inactive),> 100 µM (inactive),> 100 µM (inactive),77.8 µM (inactive),72.9 µM (inactive),> 100 µM (inactive),> 100 µM (inactive),> 100 µM (inactive),67.3 µM (inactive),> 100 µM (inactive)
COC(=O)/C=C1\C(=O)N(C(C)=O)c2ccccc21,7.18 µM (inactive),6.82 µM (inactive),15.4 µM (inactive),8.28 µM (inactive),2.03 µM (inactive),5.28 µM (inactive),12.7 µM (inactive),3.91 µM (inactive),11.3 µM (inactive),13.5 µM (inactive),13.9 µM (inactive),7.67 µM (inactive),5.25 µM (inactive),11.9 µM (inactive),17 µM (inactive),4.79 µM (inactive),12.3 µM (inactive),16.9 µM (inactive),8.73 µM (inactive),6.22 µM (inactive)
CCN(c1cccc(NC(=S)Nc2ccccc2N(CC)c2cc(-c3ccccc3)no2)c1)c1cc(-c2ccccc2)no1,> 100 µM (inactive),> 100 µM (inactive),> 100 µM (inactive),> 100 µM (inactive),> 100 µM (inactive),> 100 µM (inactive),> 100 µM (inactive),> 100 µM (inactive),> 100 µM (inactive),> 100 µM (inactive),> 100 µM (inactive),> 100 µM (inactive),> 100 µM (inactive),> 100 µM (inactive),> 100 µM (inactive),> 100 µM (inactive),> 100 µM (inactive),> 100 µM (inactive),> 100 µM (inactive),> 100 µM (inactive)
N=C(N)NC1C(O)C(O)C(O)C(NC(=N)N)C1O (stereo not given),> 100 µM (inactive),> 100 µM (inactive),> 100 µM (inactive),> 100 µM (inactive),> 100 µM (inactive),> 100 µM (inactive),> 100 µM (inactive),> 100 µM (inactive),> 100 µM (inactive),> 100 µM (inactive),> 100 µM (inactive),> 100 µM (inactive),> 100 µM (inactive),> 100 µM (inactive),> 100 µM (inactive),> 100 µM (inactive),> 100 µM (inactive),> 100 µM (inactive),> 100 µM (inactive),> 100 µM (inactive)
O=C(NC(=O)c1ccccc1[N+](=O)[O-])Nc1ccc(Oc2ncc(Cl)cn2)c(C(F)(F)F)c1,0.0183 µM (active),0.0789 µM (active),0.0209 µM (active),0.0124 µM (active),< 0.01 µM (active),0.0105 µM (active),< 0.01 µM (active),0.0262 µM (active),< 0.01 µM (active),< 0.01 µM (active),< 0.01 µM (active),< 0.01 µM (active),1.6 µM (inactive),0.0208 µM (active),< 0.01 µM (active),0.0109 µM (active),< 0.0104 µM (active),< 0.01 µM (active),< 0.01 µM (active),0.0873 µM (active)
CCCCCCCCCCCCOP(=O)(O)OP(=O)(O)OCC1OC(n2cc(C)c(=O)[nH]c2=O)CC1O (stereo not given),> 100 µM (inactive),> 100 µM (inactive),> 100 µM (inactive),> 100 µM (inactive),> 100 µM (inactive),> 100 µM (inactive),> 100 µM (inactive),> 100 µM (inactive),> 100 µM (inactive),> 100 µM (inactive),> 100 µM (inactive),> 100 µM (inactive),> 100 µM (inactive),> 100 µM (inactive),> 100 µM (inactive),> 100 µM (inactive),> 100 µM (inactive),> 100 µM (inactive),> 100 µM (inactive),> 100 µM (inactive)
Nc1ncnc2c1nc(Cl)n2C1OC2COP(=O)(O)OC2C1O (stereo not given),23.3 µM (inactive),4.99 µM (inactive),38.9 µM (inactive),3.09 µM (inactive),1.23 µM (inactive),4.57 µM (inactive),41.6 µM (inactive),1.19 µM (inactive),7.82 µM (inactive),37 µM (inactive),8.39 µM (inactive),12.2 µM (inactive),24.2 µM (inactive),5.53 µM (inactive),> 35.4 µM (inactive),26.8 µM (inactive),> 87.9 µM (inactive),> 100 µM (inactive),> 47.4 µM (inactive),12 µM (inactive)

# — ChEMBL document CHEMBL1201862, “PubChem BioAssay data set” (2004)
